# From patent publication US20230265151A1, “GIP/GLP1 CO-AGONIST COMPOUNDS” (priority 2020, published 2023)
# Like-named read-outs stand apart in the source and are kept apart here.
# Assays:
# Type in all cases: cell-based
# [1] = target: T1, hGCGR (Homo sapiens, UniProt P47871); assay: Functional cAMP formation (HTRF) in HEK-293 clonal cells expressing hGCGR, 0.1% bovine casein, without or with 1.0% human serum albumin
# T1 construct: expressed in transfected cells
# In short: (§1)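 Readings of the HTRF 665/620 nm ratio, which falls as cAMP rises, were converted to nM cAMP using a standard curve after 30 min peptide exposure at 37° C.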
# [2] = target: hGLP-1R (Homo sapiens, UniProt P43220); assay: Functional cAMP formation (HTRF) in HEK-293 clonal cells expressing hGLP-1R, 0.1% bovine casein, without or with 1.0% human serum albumin; set-up: expressed in transfected cells
# hGLP-1R, sequence (P43220 24-463): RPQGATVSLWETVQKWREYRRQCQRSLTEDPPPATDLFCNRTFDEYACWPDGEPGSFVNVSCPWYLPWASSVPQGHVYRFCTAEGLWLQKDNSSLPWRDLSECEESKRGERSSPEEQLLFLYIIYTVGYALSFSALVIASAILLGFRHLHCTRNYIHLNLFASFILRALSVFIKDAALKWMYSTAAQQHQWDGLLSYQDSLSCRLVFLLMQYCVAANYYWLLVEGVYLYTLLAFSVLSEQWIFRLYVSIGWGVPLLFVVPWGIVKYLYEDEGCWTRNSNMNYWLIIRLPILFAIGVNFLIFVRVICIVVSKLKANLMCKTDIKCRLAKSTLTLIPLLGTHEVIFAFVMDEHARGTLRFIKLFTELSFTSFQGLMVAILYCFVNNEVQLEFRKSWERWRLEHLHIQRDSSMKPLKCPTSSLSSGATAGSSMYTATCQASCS
# In short: as §1
# [3] = target: T2, hGIPR (Homo sapiens, UniProt P48546); assay: Functional cAMP formation (HTRF) in HEK-293 clonal cells expressing hGIPR, 0.1% bovine casein, without or with 1.0% human serum albumin; details: for EC50: geometric mean
# T2 construct: expressed in transfected cells
# T2 sequence (P48546 22-466): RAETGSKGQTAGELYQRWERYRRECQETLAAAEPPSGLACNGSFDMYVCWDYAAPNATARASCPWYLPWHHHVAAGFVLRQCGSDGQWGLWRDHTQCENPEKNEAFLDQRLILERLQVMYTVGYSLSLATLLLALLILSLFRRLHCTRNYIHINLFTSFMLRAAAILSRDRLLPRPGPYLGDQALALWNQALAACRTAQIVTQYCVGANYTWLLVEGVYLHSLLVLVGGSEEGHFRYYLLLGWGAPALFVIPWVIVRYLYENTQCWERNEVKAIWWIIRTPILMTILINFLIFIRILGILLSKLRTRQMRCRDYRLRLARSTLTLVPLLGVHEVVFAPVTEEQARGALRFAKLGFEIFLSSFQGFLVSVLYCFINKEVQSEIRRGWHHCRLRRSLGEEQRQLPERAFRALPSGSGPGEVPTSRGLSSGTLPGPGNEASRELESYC
# In short: as §1
# T1 sequence (P47871 26-477): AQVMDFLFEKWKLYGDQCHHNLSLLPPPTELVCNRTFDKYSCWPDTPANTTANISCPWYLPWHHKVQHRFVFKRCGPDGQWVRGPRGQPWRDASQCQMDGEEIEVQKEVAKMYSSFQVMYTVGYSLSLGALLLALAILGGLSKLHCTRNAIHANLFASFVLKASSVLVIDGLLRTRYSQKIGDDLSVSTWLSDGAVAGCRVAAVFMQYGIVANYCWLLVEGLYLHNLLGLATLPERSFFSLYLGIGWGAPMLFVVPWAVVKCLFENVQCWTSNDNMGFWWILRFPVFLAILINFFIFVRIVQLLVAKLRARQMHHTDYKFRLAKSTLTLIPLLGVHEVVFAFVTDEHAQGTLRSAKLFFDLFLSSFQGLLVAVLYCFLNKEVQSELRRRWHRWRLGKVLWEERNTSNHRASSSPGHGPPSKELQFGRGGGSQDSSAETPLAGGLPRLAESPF
compound,measurement,setting,value
CCCCCCCCCCCC(=O)N[C@@H](CCC(=O)NCCOCCOCC(=O)NCCOCCOCC(=O)NCCCC[C@H](NC(=O)CNC(=O)CNC(=O)[C@H](CCC(=O)O)NC(=O)[C@@H](NC(=O)[C@H](CC(C)C)NC(=O)[C@](C)(Cc1ccc(O)cc1)NC(=O)[C@@H](CCC(=O)O)NC(=O)[C@@H](NC(=O)[C@](C)(Cc1ccccc1)NC(=O)[C@H](CCC(=O)O)NC(=O)C(C)(C)NC(=O)[C@H](CCC(N)=O)NC(=O)[C@H](C)NC(=O)[C@H](CCCCNC(=O)COCCOCCNC(=O)COCCOCCNC(=O)CC[C@H](NC(=O)CCCCCCCCCCC)C(=O)O)NC(=O)[C@H](CCCN)NC(=O)[C@H](CC(=O)O)NC(=O)[C@H](CC(C)C)NC(=O)[C@](C)(CC(C)C)NC(=O)[C@@H](NC(=O)[C@H](CO)NC(=O)[C@H](Cc1ccncc1)NC(=O)[C@H](CC(=O)O)NC(=O)[C@H](CO)NC(=O)[C@@H](NC(=O)[C@](C)(Cc1ccccc1)NC(=O)[C@@H](NC(=O)CNC(=O)[C@H](CCC(=O)O)NC(=O)C(C)(C)NC(=O)[C@@H](N)Cc1ccc(O)cc1)[C@@H](C)O)[C@@H](C)O)[C@@H](C)CC)[C@@H](C)CC)[C@@H](C)CC)C(=O)N[C@@H](CO)C(=O)N[C@@H](CO)C(=O)NCC(=O)N[C@@H](C)C(=O)N1CCC[C@H]1C(=O)N1CCC[C@H]1C(=O)N1CCC[C@H]1C(=O)N[C@@H](CO)C(N)=O)C(=O)O [Example 173],EC50,"[1]; 0.1% bovine casein and 1.0% human serum albumin, 37° C., geometric mean, read-out: hGCGR EC50, nM (SEM, n)",> 9950 nM
same,EC50,"[1]; cAMP, incubated at 37° C., 0.1% bovine casein (no human serum albumin), geometric mean, read-out: hGCGR EC50, nM (SEM, n)",> 9950 nM
same,EC50,"[2]; 0.1% bovine casein and 1.0% human serum albumin, 37° C., geometric mean, read-out: hGLP-1R EC50, nM (SEM, n)",29.7 nM
same,Emax,"[2]; HEK293, percent of maximal response to GLP-1(7-36)NH2, 37° C., 0.1% bovine casein, arithmetic mean, read-out: hGLP-1R Emax, % ± SEM",89.9 ± 2.72%
same,EC50,"[2]; cAMP, incubated at 37° C., 0.1% bovine casein (no human serum albumin), geometric mean, read-out: hGLP-1R EC50, nM (SEM, n)",0.343 nM
same,EC50,"[3]; 0.1% bovine casein and 1.0% human serum albumin, 37° C., read-out: hGIPR EC50, nM (SEM, n)",1.24 nM
same,Emax,"[3]; HEK293, 0.1% bovine casein and 1.0% human serum albumin, 37° C., percent of maximal response to GIP(1-42)NH2, read-out: hGIPR Emax, % ± SEM",92.9 ± 6.91%
same,Emax,"[3]; HEK293, percent of maximal response to GIP(1-42)NH2, 37° C., 0.1% bovine casein, arithmetic mean, read-out: hGIPR Emax, % ± SEM",87.8 ± 6.22%
same,EC50,"[3]; cAMP, incubated at 37° C., 0.1% bovine casein (no human serum albumin), read-out: hGIPR EC50, nM (SEM, n)",0.0155 nM
CC[C@H](C)[C@H](NC(=O)[C@H](CC(C)C)NC(=O)[C@](C)(Cc1ccc(O)cc1)NC(=O)[C@@H](CCC(=O)O)NC(=O)[C@@H](NC(=O)[C@H](Cc1ccccc1)NC(=O)[C@H](CCCN)NC(=O)C(C)(C)NC(=O)[C@H](CCC(N)=O)NC(=O)[C@H](C)NC(=O)[C@H](CCCCNC(=O)COCCOCCNC(=O)COCCOCCNC(=O)CC[C@H](NC(=O)CCCCCCCCCCCCC(=O)O)C(=O)O)NC(=O)[C@H](CCCN)NC(=O)[C@H](CC(=O)O)NC(=O)[C@H](CC(C)C)NC(=O)[C@](C)(CC(C)C)NC(=O)[C@@H](NC(=O)C(C)(C)NC(=O)[C@H](Cc1ccncc1)NC(=O)[C@H](CC(=O)O)NC(=O)[C@H](CO)NC(=O)[C@@H](NC(=O)[C@](C)(Cc1ccccc1F)NC(=O)[C@@H](NC(=O)CNC(=O)[C@H](CCC(=O)O)NC(=O)C(C)(C)NC(=O)[C@@H](N)Cc1ccc(O)cc1)[C@@H](C)O)[C@@H](C)O)[C@@H](C)CC)[C@@H](C)CC)C(=O)N[C@@H](CCCCNC(=O)COCCOCCNC(=O)COCCOCCNC(=O)CC[C@H](NC(=O)CCCCCCCCCCCCC(=O)O)C(=O)O)C(=O)NCC(=O)NCC(=O)N1CCC[C@H]1C(=O)N[C@@H](CO)C(=O)N[C@@H](CO)C(=O)NCC(=O)N[C@@H](C)C(=O)N1CCC[C@H]1C(=O)N1CCC[C@H]1C(=O)N1CCC[C@H]1C(=O)N[C@@H](CO)C(N)=O [Example 348],EC50,"[1]; cAMP, 37° C., 0.1% bovine casein (no human serum albumin), geometric mean, read-out: hGCGR EC50, nM (SEM, n)",> 9950 nM
same,EC50,"[1]; cAMP, 37° C., 0.1% bovine casein and 1.0% human serum albumin, geometric mean (SEM, n), read-out: hGCGR EC50, nM (SEM, n)",> 9950 nM
same,Emax,"[2]; HEK293, cAMP, 37° C., 0.1% bovine casein and 1.0% human serum albumin, percent of maximal response to GLP-1(7-36)NH2, read-out: hGLP-1R Emax, % ± SEM",98%
same,EC50,"[2]; cAMP, 37° C., 0.1% bovine casein (no human serum albumin), geometric mean, read-out: hGLP-1R EC50, nM (SEM, n)",0.805 nM
same,EC50,"[2]; cAMP, 37° C., 0.1% bovine casein and 1.0% human serum albumin, geometric mean (SEM, n), read-out: hGLP-1R EC50, nM (SEM, n)",8.95 nM
same,Emax,"[3]; HEK293, cAMP, 37° C., 0.1% bovine casein and 1.0% human serum albumin, percent of maximal response to GIP(1-42)NH2, read-out: hGIPR Emax, % ± SEM",79.3%
same,Emax,"[3]; HEK293, cAMP, 37° C., 0.1% bovine casein, percent of maximal response to GIP(1-42)NH2, arithmetic mean, read-out: hGIPR Emax, % ± SEM",95.9%
same,EC50,"[3]; cAMP, 37° C., 0.1% bovine casein (no human serum albumin), read-out: hGIPR EC50, nM (SEM, n)",0.0228 nM
CC[C@H](C)[C@H](NC(=O)[C@H](CC(C)C)NC(=O)[C@](C)(Cc1ccccc1)NC(=O)[C@H](CCCCNC(=O)COCCOCCNC(=O)COCCOCCNC(=O)CC[C@H](NC(=O)CCCCCCCCCCCCC(=O)O)C(=O)O)NC(=O)[C@@H](NC(=O)[C@](C)(Cc1ccccc1)NC(=O)[C@H](CCC(=O)O)NC(=O)C(C)(C)NC(=O)[C@H](CCC(N)=O)NC(=O)[C@H](C)NC(=O)[C@H](CCCCNC(=O)COCCOCCNC(=O)COCCOCCNC(=O)CC[C@H](NC(=O)CCCCCCCCCCCCC(=O)O)C(=O)O)NC(=O)[C@H](CCCN)NC(=O)[C@H](CC(=O)O)NC(=O)[C@H](CC(C)C)NC(=O)[C@](C)(CC(C)C)NC(=O)[C@@H](NC(=O)[C@H](CO)NC(=O)[C@H](Cc1ccncc1)NC(=O)[C@H](CC(=O)O)NC(=O)[C@H](CO)NC(=O)[C@@H](NC(=O)[C@](C)(Cc1ccccc1F)NC(=O)[C@@H](NC(=O)CNC(=O)[C@H](CCC(=O)O)NC(=O)C(C)(C)NC(=O)[C@@H](N)Cc1ccc(O)cc1)[C@@H](C)O)[C@@H](C)O)[C@@H](C)CC)[C@@H](C)CC)C(=O)N[C@@H](CCC(=O)O)C(=O)NCC(=O)NCC(=O)N1CCC[C@H]1C(=O)N[C@@H](CO)C(=O)N[C@@H](CO)C(=O)NCC(=O)N[C@@H](C)C(=O)N1CCC[C@H]1C(=O)N1CCC[C@H]1C(=O)N1CCC[C@H]1C(=O)N[C@@H](CO)C(N)=O [Example 84],EC50,"[1]; hGCGR EC50, nM (SEM, n), cAMP, incubated at 37° C., 0.1% bovine casein (no human serum albumin), geometric mean",> 9950 nM
same,Emax,"[2]; HEK293, read-out: hGLP-1R Emax, % ± SEM, percent of maximal response to GLP-1(7-36)NH2, 37° C., 0.1% bovine casein, arithmetic mean",94%
same,Emax,"[3]; HEK293, read-out: hGIPR Emax, % ± SEM, percent of maximal response to GIP(1-42)NH2, 37° C., 0.1% bovine casein, arithmetic mean",98.5%
CC[C@H](C)[C@H](NC(=O)[C@H](CCCN)NC(=O)[C@H](CC(=O)O)NC(=O)[C@H](CC(C)C)NC(=O)[C@](C)(CC(C)C)NC(=O)[C@@H](NC(=O)[C@H](CO)NC(=O)[C@H](Cc1ccncc1)NC(=O)[C@H](CC(=O)O)NC(=O)[C@H](CO)NC(=O)[C@@H](NC(=O)[C@](C)(Cc1ccccc1F)NC(=O)[C@@H](NC(=O)CNC(=O)[C@H](CCC(=O)O)NC(=O)C(C)(C)NC(=O)[C@@H](N)Cc1ccc(O)cc1)[C@@H](C)O)[C@@H](C)O)[C@@H](C)CC)C(=O)N[C@@H](C)C(=O)N[C@@H](CCC(N)=O)C(=O)NC(C)(C)C(=O)N[C@@H](CCC(=O)O)C(=O)N[C@@H](Cc1ccccc1)C(=O)N[C@H](C(=O)N[C@@H](CCCCNC(=O)COCCOCCNC(=O)COCCOCCNC(=O)CC[C@H](NC(=O)CCCCCCCCCOc1ccc(C(=O)O)cc1)C(=O)O)C(=O)N[C@@](C)(Cc1ccc(O)cc1)C(=O)N[C@@H](CC(C)C)C(=O)N[C@H](C(=O)N[C@@H](CCCCNC(=O)COCCOCCNC(=O)COCCOCCNC(=O)CC[C@H](NC(=O)CCCCCCCCCOc1ccc(C(=O)O)cc1)C(=O)O)C(=O)NCC(=O)NCC(=O)N1CCC[C@H]1C(=O)N[C@@H](CO)C(=O)N[C@@H](CO)C(=O)NCC(=O)N[C@@H](C)C(=O)N1CCC[C@H]1C(=O)N1CCC[C@H]1C(=O)N1CCC[C@H]1C(=O)N[C@@H](CO)C(N)=O)[C@@H](C)CC)[C@@H](C)CC [Example 274],EC50,"[1]; hGCGR EC50, nM (SEM, n), 0.1% bovine casein and 1.0% human serum albumin, 37° C., geometric mean",> 9950 nM
same,EC50,"[1]; hGCGR EC50, nM (SEM, n), cAMP, 37° C., 0.1% bovine casein (no human serum albumin), geometric mean",> 9950 nM
same,Emax,"[2]; HEK293, read-out: hGLP-1R Emax, % ± SEM, 0.1% bovine casein and 1.0% human serum albumin, 37° C., percent of maximal response to GLP-1(7-36)NH2",121%
same,Emax,"[2]; HEK293, read-out: hGLP-1R Emax, % ± SEM, cAMP, 37° C., 0.1% bovine casein, percent of maximal response to GLP-1(7-36)NH2, arithmetic mean",114%
same,EC50,"[2]; hGLP-1R EC50, nM (SEM, n), cAMP, 37° C., 0.1% bovine casein (no human serum albumin), geometric mean",0.406 nM
same,Emax,"[3]; HEK293, read-out: hGIPR Emax, % ± SEM, 0.1% bovine casein and 1.0% human serum albumin, 37° C., percent of maximal response to GIP(1-42)NH2",93.5%
same,EC50,"[3]; hGIPR EC50, nM (SEM, n), cAMP, 37° C., 0.1% bovine casein (no human serum albumin)",0.0226 nM
